Laboratory results taken from US20240109865A1, “INDAZOLE COMPOUNDS AS KINASE INHIBITORS” (TYRA BIOSCIENCES, INC., priority 2020, published 2024).

Tests used:
[1] = biological target: FGFR3-BAIAP2L1 Ba/F3 cells (Homo sapiens, UniProt P22607); experiment: Ba/F3 cell viability assay (CellTiter-Glo 2.0), FGFR3-BAIAP2L1 Ba/F3; format: cell-based; conditions: for Ba/F3 FGFR1/FGFR3 Selectivity: FGFR3 > FGFR1 selectivity ratio in Ba/F3 FGFR fusion cell based assays; for IC50: read-out: Ba/F3 Cells FGFR3 (IC50 nM), FGFR3-BAIAP2L1 Ba/F3 cells, 48 hours, Cell Titer Glo 2.0
In short: (§1)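 Viability read as ATP luminescence (CellTiter-Glo 2.0) after 48 h compound exposure, normalized to DMSO-treated cells and fitted with a 4-parameter curve for IC50. Cells: Ba/F3 dependent on FGFR1-BCR or FGFR3-BAIAP2L1 fusion kinase; top dose 30 μM, 10-fold steps, 9 doses in triplicate.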

[2] = tested on: KG-1 cells (FGFR1-fusion); experiment: KG-1 cancer cell line cell viability assay (CellTiter-Glo 2.0); format: cell-based; conditions: Homo sapiens, 72 hours, Cell Titer Glo 2.0
Source text: (§2) Experimental Purpose: To detect the change of intracellular ATP by Cell Titer-Glo® and to evaluate the inhibitory effect of the compounds on cancer cell lines by determining the in vitro IC50 value of the compounds.
(§3) Cell Titer-Glo® 2.0 Luminescent cell viability assay reagent was purchased from Promega (Madison, WI). RT112/84 and KG-1 cell lines were purchased from American Type Culture Collection (Manassas, VA). UM-UC-14 cell line was purchased from Sigma (St. Louis, MO). RT112/84, UM-UC-14, and KG-1 cells were cultured in RPMI1640 media supplemented with 10% fetal bovine serum. Cultures were maintained at 37° C. in a humidified atmosphere of 5% C02 and 95% air.
(§4) Cell Viability Assay Procedure: Cells were plated in 96-well clear bottom/white plates (Corning #3903) at 10,000 cells/well in 100 μl of media, incubated overnight. The next day, test compound DMSO stock solutions were made at 10 mM and 2 μM final concentration. Compounds were then added to cells in a 9-dose, 10-fold dilution series starting at 30 μM with an HP 300e Digital Dispenser (each dose was applied in triplicate). DMSO was backfilled to each well up to 301 nL total volume of test compound+DMSO, and a total of 301 nL DMSO was added to a control/no test compound well in triplicate. The cells in cell culture plates were incubated with the compounds at 37° C. and 5% C02 for 72 hours. Then 50 μl of Cell Titer Glo 2.0 reagent was added to each well of the cell culture plates. The contents were covered from light and mixed on an orbital shaker at room temperature for 10 min. Luminescence was recorded by a Synergy H1 Microplate Reader (Biotek, Winooski, VT). Cells were assessed as a percentage of DMSO only treated control cells. Curves were plotted and IC50 values were calculated using the GraphPad Prism 8 program based on a sigmoidal dose-response equation (4 parameter).

[3] = tested on: RT112/84 cells (FGFR3-fusion); experiment: RT112/84 cancer cell line cell viability assay (CellTiter-Glo 2.0); format: cell-based; conditions: Homo sapiens, 72 hours, Cell Titer Glo 2.0
Source text: as §2, §3, §4

[4] = biological target: FGFR1 (Homo sapiens (Human), UniProt P11362); experiment: Kinase assay, binding constants (Kd), kinase-tagged T7 phage, qPCR
In short: (§5)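 Kinase-tagged T7 phage (grown in BL21-derived E. coli) competed with test compound for immobilized biotinylated ligand on streptavidin beads. Kds came from an 11-point 3-fold dilution series at 0.9% final DMSO. Bound kinase was eluted with non-biotinylated ligand and quantified by qPCR, with Hill slope fixed at −1.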

[5] = biological target: FGFR3 (Homo sapiens (Human), UniProt P22607); experiment: as above
In short: as §5

[6] = biological target: FGFR2 (Homo sapiens (Human), UniProt P21802); experiment: as above
In short: as §5

[7] = biological target: FGFR3 (V555M) (Homo sapiens (Human), UniProt P22607, V555M); experiment: as above; conditions: V555M mutant
In short: as §5

[8] = biological target: FGFR4 (Homo sapiens (Human), UniProt P22455); experiment: as above
In short: as §5

[9] = biological target: FGFR1-BCR Ba/F3 cells (Homo sapiens, UniProt P11362); experiment: Ba/F3 cell viability assay (CellTiter-Glo 2.0), FGFR1-BCR Ba/F3; format: cell-based; conditions: read-out: Ba/F3 Cells FGFR1 (IC50 nM), 48 hours, Cell Titer Glo 2.0
In short: as §1

[10] = tested on: UM-UC-14 cells (FGFR3(S249C)); experiment: UM-UC-14 cancer cell line cell viability assay (CellTiter-Glo 2.0); format: cell-based; conditions: UMUC14, 72 hours, Cell Titer Glo 2.0
Source text: as §2, §3, §4

Chain of FGFR2 (P21802 22-821): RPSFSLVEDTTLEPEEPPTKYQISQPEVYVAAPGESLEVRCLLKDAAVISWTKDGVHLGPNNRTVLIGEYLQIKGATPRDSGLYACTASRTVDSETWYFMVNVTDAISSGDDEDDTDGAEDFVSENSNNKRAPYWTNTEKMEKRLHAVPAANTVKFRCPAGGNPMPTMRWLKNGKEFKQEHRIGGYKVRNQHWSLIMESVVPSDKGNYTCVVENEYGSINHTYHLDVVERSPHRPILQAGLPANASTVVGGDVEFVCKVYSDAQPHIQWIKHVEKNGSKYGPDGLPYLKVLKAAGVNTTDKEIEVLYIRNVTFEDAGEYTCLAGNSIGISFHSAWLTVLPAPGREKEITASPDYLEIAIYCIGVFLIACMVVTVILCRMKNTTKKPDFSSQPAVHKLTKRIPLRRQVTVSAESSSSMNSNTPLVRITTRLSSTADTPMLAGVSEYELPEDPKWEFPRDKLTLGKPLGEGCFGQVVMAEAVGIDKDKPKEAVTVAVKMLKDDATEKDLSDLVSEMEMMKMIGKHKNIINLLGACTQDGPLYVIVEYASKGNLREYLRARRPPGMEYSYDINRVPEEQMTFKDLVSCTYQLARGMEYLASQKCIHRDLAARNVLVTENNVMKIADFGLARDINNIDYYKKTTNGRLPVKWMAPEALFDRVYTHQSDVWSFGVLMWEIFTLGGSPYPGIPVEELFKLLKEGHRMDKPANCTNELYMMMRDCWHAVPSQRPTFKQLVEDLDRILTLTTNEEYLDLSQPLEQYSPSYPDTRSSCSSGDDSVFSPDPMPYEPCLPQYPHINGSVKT
Chain of FGFR1-BCR Ba/F3 cells (P11362 22-822 limits assumed, change not shown): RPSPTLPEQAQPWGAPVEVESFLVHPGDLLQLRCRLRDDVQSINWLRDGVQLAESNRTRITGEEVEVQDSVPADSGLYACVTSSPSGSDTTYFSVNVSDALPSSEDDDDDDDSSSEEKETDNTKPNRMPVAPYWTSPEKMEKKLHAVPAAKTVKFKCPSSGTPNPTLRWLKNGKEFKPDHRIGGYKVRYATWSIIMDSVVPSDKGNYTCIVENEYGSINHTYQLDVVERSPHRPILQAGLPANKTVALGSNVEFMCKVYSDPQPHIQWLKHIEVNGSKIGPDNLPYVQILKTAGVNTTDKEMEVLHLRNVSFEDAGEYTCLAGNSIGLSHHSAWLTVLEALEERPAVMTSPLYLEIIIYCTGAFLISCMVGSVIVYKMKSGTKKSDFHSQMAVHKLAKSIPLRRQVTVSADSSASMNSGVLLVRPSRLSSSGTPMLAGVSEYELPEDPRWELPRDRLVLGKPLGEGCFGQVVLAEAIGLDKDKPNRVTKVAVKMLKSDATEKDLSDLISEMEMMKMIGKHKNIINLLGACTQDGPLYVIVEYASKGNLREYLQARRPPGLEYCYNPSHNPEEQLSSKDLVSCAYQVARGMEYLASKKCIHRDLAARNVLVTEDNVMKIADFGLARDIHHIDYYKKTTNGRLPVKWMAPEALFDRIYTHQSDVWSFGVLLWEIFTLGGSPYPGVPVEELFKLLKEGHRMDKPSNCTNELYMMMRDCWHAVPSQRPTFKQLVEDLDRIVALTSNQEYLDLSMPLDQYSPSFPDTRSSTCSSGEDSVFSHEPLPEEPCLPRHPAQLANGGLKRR
Chain of FGFR1 (P11362 22-822): as the sequence (P11362 22-822 limits assumed, change not shown) above
Chain of FGFR4 (P22455 22-802): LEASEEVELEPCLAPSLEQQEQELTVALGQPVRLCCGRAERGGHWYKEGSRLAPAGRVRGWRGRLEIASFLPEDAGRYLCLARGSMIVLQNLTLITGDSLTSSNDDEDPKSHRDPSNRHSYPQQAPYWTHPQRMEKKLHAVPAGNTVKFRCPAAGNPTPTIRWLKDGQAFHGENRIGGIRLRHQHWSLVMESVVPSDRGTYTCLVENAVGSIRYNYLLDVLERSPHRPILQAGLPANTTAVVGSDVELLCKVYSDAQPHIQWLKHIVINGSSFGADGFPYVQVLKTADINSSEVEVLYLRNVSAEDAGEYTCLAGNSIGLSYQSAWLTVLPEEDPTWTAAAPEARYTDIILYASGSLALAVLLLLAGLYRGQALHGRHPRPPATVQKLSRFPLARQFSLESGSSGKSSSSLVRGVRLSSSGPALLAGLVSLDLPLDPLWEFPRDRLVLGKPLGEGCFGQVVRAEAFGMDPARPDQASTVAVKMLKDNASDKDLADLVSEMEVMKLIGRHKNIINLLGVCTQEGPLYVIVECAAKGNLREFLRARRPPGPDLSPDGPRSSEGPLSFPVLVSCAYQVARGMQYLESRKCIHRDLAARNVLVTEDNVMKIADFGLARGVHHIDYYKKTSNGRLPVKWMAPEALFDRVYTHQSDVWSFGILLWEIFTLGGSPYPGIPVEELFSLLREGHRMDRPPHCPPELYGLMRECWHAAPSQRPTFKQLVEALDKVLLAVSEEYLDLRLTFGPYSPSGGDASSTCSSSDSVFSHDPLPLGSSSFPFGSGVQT
Chain of FGFR3-BAIAP2L1 Ba/F3 cells (P22607 23-806 limits assumed, change not shown): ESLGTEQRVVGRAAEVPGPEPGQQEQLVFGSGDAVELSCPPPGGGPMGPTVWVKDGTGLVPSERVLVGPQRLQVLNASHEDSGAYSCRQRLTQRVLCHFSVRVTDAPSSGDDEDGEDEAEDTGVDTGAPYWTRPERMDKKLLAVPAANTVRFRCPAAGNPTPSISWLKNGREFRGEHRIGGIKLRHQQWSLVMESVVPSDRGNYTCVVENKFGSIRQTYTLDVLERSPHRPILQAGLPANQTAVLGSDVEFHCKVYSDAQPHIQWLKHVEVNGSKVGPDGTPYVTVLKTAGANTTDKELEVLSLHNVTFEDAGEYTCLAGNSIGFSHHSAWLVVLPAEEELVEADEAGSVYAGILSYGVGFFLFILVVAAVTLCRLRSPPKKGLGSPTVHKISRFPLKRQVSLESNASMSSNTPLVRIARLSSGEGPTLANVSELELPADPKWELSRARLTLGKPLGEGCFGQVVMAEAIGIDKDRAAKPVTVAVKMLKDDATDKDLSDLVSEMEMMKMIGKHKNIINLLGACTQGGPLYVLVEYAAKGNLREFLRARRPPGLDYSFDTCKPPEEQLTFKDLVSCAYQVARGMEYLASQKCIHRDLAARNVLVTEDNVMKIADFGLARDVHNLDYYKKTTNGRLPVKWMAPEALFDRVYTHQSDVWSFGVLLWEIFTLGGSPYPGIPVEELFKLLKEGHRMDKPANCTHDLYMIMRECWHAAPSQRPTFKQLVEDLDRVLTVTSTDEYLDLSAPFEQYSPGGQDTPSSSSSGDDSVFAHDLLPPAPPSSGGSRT
Chain of FGFR3 (P22607 23-806): as the sequence (P22607 23-806 limits assumed, change not shown) above
Chain of FGFR3 (V555M) (P22607 23-806 V555M): as the sequence (P22607 23-806 limits assumed, change not shown) above, with V533M counted along it

Compound	Ba/F3 FGFR1/FGFR3 Selectivity [1]	IC50 [1] [nM]	IC50 [2] [nM]	IC50 [3] [nM]	Kd [4] [nM]	Kd [5] [nM]	Kd [6] [nM]	Kd [7] [nM]	Kd [8] [nM]	IC50 [9] [nM]	IC50 [10] [nM]
CCOC(=O)N1CC2(C1)CN(c1ccc(-c3n[nH]c4ccc(O[C@H](C)c5c(Cl)cncc5Cl)cc34)cn1)C2 [Example 121, ethyl 6-[5-[5-[(1R)-1-(3,5-dichloro-4-pyridyl)ethoxy]-1H-indazol-3-yl]-2-pyridyl]-2,6-diazaspiro[3.3]heptane-2-carboxylate]	14	1 to 20	100 to 300	1 to 20	20 to 100	1 to 20	20 to 100	1 to 20	1 to 20	100 to 300	
C[C@@H](Oc1ccc2[nH]nc(-c3cnc(N4CC5(CCS(=O)(=O)C5)C4)nc3)c2c1)c1c(Cl)cncc1Cl [Example 122, 2-[5-[5-[(1R)-1-(3,5-dichloro-4-pyridyl)ethoxy]-1H-indazol-3-yl]pyrimidin-2-yl]-6λ^6-thia-2-azaspiro[3.4]octane 6,6-dioxide]	7	1 to 20	100 to 300	1 to 20	1 to 20	1 to 20	20 to 100	1 to 20	1 to 20	20 to 100	
COC(=O)N1CC2(C1)CN(c1ccc(-c3n[nH]c4ccc(O[C@H](C)c5c(Cl)cncc5Cl)cc34)cn1)C2 [Example 123, methyl 6-[5-[5-[(1R)-1-(3,5-dichloro-4-pyridyl)ethoxy]-1H-indazol-3-yl]-2-pyridyl]-2,6-diazaspiro[3.3]heptane-2-carboxylate]	15	1 to 20	100 to 300	1 to 20	1 to 20	1 to 20	1 to 20	1 to 20	1 to 20	20 to 100	
CCS(=O)(=O)N1CC2(CN(c3ccc(-c4n[nH]c5ccc(O[C@H](C)c6c(Cl)cncc6Cl)cc45)cn3)C2)C1 [Example 124, 5-[(1R)-1-(3,5-dichloro-4-pyridyl)ethoxy]-3-[6-(2-ethylsulfonyl-2,6-diazaspiro[3.3]heptan-6-yl)-3-pyridyl]-1H-indazole]	17	1 to 20	100 to 300	1 to 20	20 to 100	1 to 20	20 to 100	1 to 20	1 to 20	100 to 300	
COC(=O)N1CCC2(CC1)CN(c1ccc(-c3n[nH]c4ccc(O[C@H](C)c5c(Cl)cncc5Cl)cc34)cn1)C2 [Example 125, methyl 2-[5-[5-[(1R)-1-(3,5-dichloro-4-pyridyl)ethoxy]-1H-indazol-3-yl]-2-pyridyl]-2,7-diazaspiro[3.5]nonane-7-carboxylate]	16	1 to 20	100 to 300	1 to 20	20 to 100	1 to 20	20 to 100	1 to 20	1 to 20	100 to 300	
C[C@@H](Oc1ccc2[nH]nc(-c3cnc(N4CCC5(CCS(=O)(=O)C5)C4)nc3)c2c1)c1c(Cl)cncc1Cl (stereo partly drawn) [Example 127, 7-[5-[5-[(1R)-1-(3,5-dichloro-4-pyridyl)ethoxy]-1H-indazol-3-yl]pyrimidin-2-yl]-2λ^6-thia-7-azaspiro[4.4]nonane 2,2-dioxide]	11	1 to 20	100 to 300	20 to 100	20 to 100	1 to 20	20 to 100	1 to 20	1 to 20	100 to 300	
C[C@@H](Oc1ccc2[nH]nc(-c3cnc(N4CC5(CCN(S(C)(=O)=O)C5)C4)nc3)c2c1)c1c(Cl)cncc1Cl [Example 157, 5-[(1R)-1-(3,5-dichloro-4-pyridyl)ethoxy]-3-[2-(7-methylsulfonyl-2,7-diazaspiro[3.4]octan-2-yl)pyrimidin-5-yl]-1H-indazole]	7	1 to 20		20 to 100	20 to 100	1 to 20	20 to 100	1 to 20	1 to 20	100 to 300	100 to 300
